Laboratory results from US4395404A, “Synthetic thymosin β3 and β4 analogues” (George Washington University, priority 1982, dated 1983).
Where no end group is shown, it is not given here.

What was measured:
[1] = test system: Peritoneal exudate cells (PEC) from guinea pig; assay: Macrophage Migration Inhibitory Factor (MIF) assay, nonspecific inhibition of macrophage migration; assay type: cell-based, Hartley strain guinea pigs; conditions: less than 20% considered insignificant
Protocol: The standardized Macrophage Migration Inhibitory Factor (MIF) assay for natural thymosin β4, synthetic thymosin β4, compounds of formula XVI, (designated C12 β3), formula VI (designated C8 β4), formula IV (designated C10 β4), and formula VIII (designated C6 β4) was performed following the method of Thurman, et al., Lymphokines and Thymic Hormones: Their Potential Utilization in Cancer Therapeutics, ed. by Goldstein and Chirigos, Raven Press, New York, pp 145-157 (1981). Peritoneal exudate cells (PEC) from guinea pig were prepared in Hartley strain guinea pigs by injecting 20-30 ml of sterile mineral oil 3-5 days prior to the assay. On the day of the assay, the guinea pigs were anesthetized and injected i.p. with 50 ml of RPMI-1640. Following abdominal massage, the peritoneum was opened with a one inch incision in the umbilical region and the peritoneal fluids withdrawn. The peritoneal fluids were centrifuged at 200×g for 10 min and the pelleted cells resuspended in a small volume of RPMI for transfer to clean tubes. Following three more washes, the cells were resuspended, counted and adjusted to 45×10^6/ml for use. In some experiments mouse PEC were used in place of guinea pig PEC. The mouse PEC were induced in BALB/c normal or nude mice by injecting 1 ml of mineral oil i.p. 3 days prior obtaining the cells by washing the peritoneum with 5 ml of RPMI 1640. In some experiments macrophage-like cell lines, WEHI-3 and FC-1, were used in place of PEC. The WEHI-3 cells migrate and have been reported to respond to migration inhibitory factor (MIF). Likewise, the FC-1 cells are also migratory and respond to MIF. […] The percent nonspecific inhibition (PNSI) was calculated as: [formula] […] Percent nonspecific inhibition of migration of less than 20% was also considered insignificant. The date from these experiments are compiled in Table 3.

[2] = test system: Splenic lymphocytes; assay: In vivo restoration of splenic mitogenic responses in HCA suppressed mice (tritiated thymidine incorporation); set-up: species or system C57B1/6J mice; conditions: for Mitogens PHA-P (cpm): HCA-saline 12,000, normal 30,000; for Mitogens Con A (cpm): HCA-saline 86,000, normal 210,000
Protocol: The in vivo effect of thymosin fractions (supra) on restoration of splenic mitogenic responses in HCA suppressed C57B1/6J mice was assayed and determined by the following method.
Splenic lymphocytes were removed sterilly, placed in plastic petri dishes containing RPMI 1640 (with 25 mM HEPES buffer, 100 μ/ml penicillin, 100 μg/ml streptomycin and 2mM L-glutamine) and a 64-mesh stainless steel wire screen. Single cell suspensions were obtained by further passage through a 25 GA needle. The cells were washed twice, counted using a Coulter Counter Model A and suspended to give a concentration of 6×10^6 leukocytes/ml. Cultures were prepared in flat bottom 96 well microtiter plates by placing 0.10 ml of the cell suspension into each well plus 0.05 ml 20% heat inactivated fetal calf serum (FCS) (resulting in 6×10^5 cells/well in 5% FCS final). Control cultures received 0.05 ml of RPMI 1640, and the stimulated cultures received 0.025 ml of RPMI 1640 containing various concentrations of thymosin and 0.025 ml of various concentrations of PHA-P (Difco, Detroit, Michigan), Con-A (Calbiochem, Oxnard, California), PWM (GIBCO, Grand Island, New York) or E. coli LPS (Difco, Detroit, Michigan) all made up in RPMI 1640. Cultures were pulsed by adding 1 uCi tritiated thymidine, 1.9 Ci/mM (Schwartz/Mann,Orangeburg, New Jersey), in 0.02 ml of RPMI 1640 8 hours before culture termination. Cultures were harvested utilizing a Multiple-Automated Sample Harvester (Microbiological Associates, Bethesda, Maryland). The resulting filter spots were dried and placed in glass liquid scintillation mini-vials to which was added 1 ml of scintillation cocktail. The vials were stoppered and the tritiated thymidine incorporation analyzed by scintillation spectrophotometry on an LKB liquid scintillation counter to provide Con A (cpm) and PHA-P (cpm). Processing of the data and necessary statistical tests were performed on a Wang 700 C Advanced Programming Calculator (Wang Labs, Tewksbury, Massachusetts) and are compiled in columns 1-2 and 5-6 of Table 2.

[3] = test system: TdT activity in thymocytes; assay: In vivo effect on TdT activity in thymocytes of hydrocortisone acetate (HCA) treated mice; set-up: species or system C57B1/6J mice; conditions: for TdT Specific Activity: daily for 11 days after 1.25 mg HCA at day 0, HCA-saline 6.4, normal 8.9; for TdT % Increase over HCA-saline: daily for 11 days after HCA
Protocol: The in vivo effect of thymosin fractions, i.e. thymosin β3 (designated HCA-thymosin β3), thymosin β4 (designated HCA-thymosin β4), thymosin fraction 5 (designated HCA-thymosin fr 5), compound of formula VI (designated HCA-synthetic C8 β4) and compound of formula XVI (designated HCA-synthetic C12 β3, on TdT activity in thymocytes of hydrocortisone acetate (HCA) treated C57B1/6J mice was assayed and determined according to the method of Hu, et al., 38, 1079 (1979).
For TdT activity determination [(following the Hu et al method (supra)], a 1.25 mg HCA injection per animal was carried out at day zero (0). Each injection was followed by daily treatment of the animal with the thymosin fractions (supra) or controls, i.e. no HCA and HCA-saline, for eleven (11) consecutive days. The increase in TdT specific activity (nmoles of dGTP incorporated per 10^8 thymocytes per hour) over that of HCA-saline treated animals was determined, the data compiled in columns 1-4 of Table 2.

[4] = test system: T-cell populations; conditions: partially purified; Low and Goldstein 1978; cited from earlier work
[5] = test system: macrophages; conditions: Thurman et al. 1981; cited from earlier work
[6] = test system: TdT positive cells in the thymus; conditions: following steroid induced immunosuppression; Low et al. 1981; cited from earlier work

Substance | PNSI (percent nonspecific inhibition of macrophage migration) ([1]; 0.0005 nmoles/ml) | PNSI (percent nonspecific inhibition of macrophage migration) ([1]; 0.005 nmoles/ml) | PNSI (percent nonspecific inhibition of macrophage migration) ([1]; 0.05 nmoles/ml) | PNSI (percent nonspecific inhibition of macrophage migration) ([1]; 0.5 nmoles/ml) | Mitogens PHA-P (cpm) ([2]; 10 μg/injection) | Mitogens Con A (cpm) ([2]; 10 μg/injection) | TdT Specific Activity ([3]; 10 μg/injection) | TdT % Increase over HCA-saline ([3]; 10 μg/injection) | Induction of TdT positive cells in T-cell populations [4] | Mitogens PHA-P (cpm) ([2]; 1 μg/injection) | Mitogens Con A (cpm) ([2]; 1 μg/injection) | TdT Specific Activity ([3]; 1 μg/injection) | TdT % Increase over HCA-saline ([3]; 1 μg/injection) | Migration of macrophages [5] | Reappearance of TdT positive cells in the thymus [6]
IEQEKQQAGES [C10 β4, L-Isoleucyl-L-glutamyl-L-glutaminyl-L-glutamyl-L-lysyl-L-glutaminyl-L-glutaminyl-L-alanyl-glycyl-L-glutamyl-L-serine] | -5.3% | 10.7% | 18.8% | 21.6% | – | – | – | – | – | – | – | – | – | – | –
KQAGES [C6 β4, L-Lysyl-L-glutaminyl-L-alanyl-glycyl-L-glutamyl-L-serine] | 3.1% | -5.1% | 15.2% | 18.3% | – | – | – | – | – | – | – | – | – | – | –
QAGESDEITAKT [C12 β3, L-Glutaminyl-L-alanyl-glycyl-L-glutamyl-L-seryl-L-aspartyl-L-glutamyl-L-isoleucyl-L-threonyl-L-alanyl-L-lysyl-L-threonine] | 23.5% | 24.7% | 29.7% | 30.2% | 65,000 cpm | 110,000 cpm | 8.2 nmoles of dGTP incorporated pe | 28% | – | – | – | – | – | – | –
QEKQAGES [C8 β4, L-glutaminyl-L-glutamyl-L-lysyl-L-glutaminyl-L-alanyl-glycyl-L-glutamyl-L-serine] | 5.5% | 27.0% | 25.4% | 24.1% | 11,000 cpm | 140,000 cpm | 7.6 nmoles of dGTP incorporated pe | 19% | – | – | – | – | – | – | –
Synthetic thymosin β4: synthetic thymosin β4, tested beside natural thymosin β4 in the MIF assay (SDKPDMAEIEKFDKSKLKKTETQEKNPLPSKETIEQEKQAGES; Thymosin beta-4 synthetic; UniProt P62328 2-44, looked up) [reference compound] | – | 25.0% | 25.9% | 30.3% | – | – | – | – | – | – | – | – | – | – | –
thymosin β3 [HCA--Thymosin β3, reference compound] | – | – | – | – | – | – | – | – | induce TdT positive cells | 27,000 cpm | 120,000 cpm | 9.7 nmoles of dGTP incorporated pe | 52% | inhibit the migration of macrophages | accelerate the reappearance of TdT positive cells in the thymus
thymosin β4 [Natural thymosin β4, reference compound] | – | 23.1% | 29.2% | 37.6% | – | – | – | – | induce TdT positive cells | 10,000 cpm | 125,000 cpm | 8.8 nmoles of dGTP incorporated pe | 38% | inhibit the migration of macrophages | accelerate the reappearance of TdT positive cells in the thymus
